This is an account of results in patent publication US11938153B2, “Methods of treating T cell exhaustion by inhibiting or modulating T cell receptor signaling” (THE BOARD OF TRUSTEES OF THE LELAND STANFORD JUNIOR …, priority 2017, dated 2024).

Assay [1] has as its system GD2.28z.FKBP CAR T cells. Put plainly: IL-2 secretion of GD2.28z.FKBP CAR T cells in co-culture with Nalm6 cells expressing GD2 (ELISA). The class given is cell-based, human. As for the experimental part:
Because phenotypic markers may not be entirely predictive of T cell function, we also performed functional experiments on CAR T cells provided transient drug exposure in culture. CAR T cells were washed, resuspended in media containing S1, and mixed at a 1:1 ratio with Nalm6 leukemic cells stably expressing surface GD2. Culture supernatants were harvested approximately 24 hours later and cytokine levels were evaluated via ELISA.
Similar to GD2.28z CAR that lacks a destabilization domain and therefore have persistent high levels of CAR signaling, cells expressing the GD2.28z.FKBP CAR that experienced continuous drug treatment (FIG. 4, grey bars) secreted minimal amounts of IL-2 on both day 10 and day 14 post-activation, consistent with T cell exhaustion.
For orientation: An ELISA detects its analyte on a solid surface through an enzyme-linked reagent.

In assay [2] the target is T1, GD2.28z.FKBP CAR (Homo sapiens, UniProt P62942, E32G/F37V/K106E/R72G).
T1 construct: expressed in transfected cells; host or cells: T cells, lentiviral transduction
T1 sequence (P62942 2-108 E32G/F37V/R72G/K106E): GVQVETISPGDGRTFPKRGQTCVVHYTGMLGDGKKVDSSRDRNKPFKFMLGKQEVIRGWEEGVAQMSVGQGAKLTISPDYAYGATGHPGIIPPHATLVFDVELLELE
Put plainly: Regulation of GD2.28z.FKBP CAR surface expression by shield-1 (FACS). In kind it is cell-based. To be noted: adding or subtracting S1 in culture medium. The source says: FIG. 1: Characterization of the GD2.28z.FKBP CAR. T cells were transduced with lentivirus encoding the GD2.28z.FKBP CAR on day 1 after activation and subsequently cultured with various concentrations of shield-1 in the growth medium. On day 7, CAR expression was quantified via FACS.

The test system of assay [3] is HA-GD2.28z.FKBP CAR T cells. Put plainly: Sorted PD-1/TIM-3/LAG-3 triple positive HA-GD2.28z.FKBP CAR T cells re-cultured with or without S1 (FACS, co-culture). The class given is cell-based, human. The source says:
Functional studies by several groups, including our lab have verified that co-expression of PD-1, TIM-3, and LAG-3 (triple positive, TP) denotes an exhausted cell subset that is highly dysfunctional. We thus sought to analyze whether cessation of tonic signaling in this cell subset could reverse their phenotype and restore their ability to secrete IL-2 in response to tumor antigen. […] On day 10 post-activation, HA-GD2.28z.FKBP CAR T cells that had experienced continuous S1 treatment were sorted in order to isolate a pure PD-1/TIM-3/LAG-3 exhausted population. “Triple positive” exhausted cells were then re-cultured either with or without S1 to test whether removal of tonic signaling could restore their function. FACS and co-culture assays were conducted 4 days later.

Assay [4] deals with T2, Her2.28z.FKBP (Homo sapiens, UniProt P62942, E32G/F37V/K106E/R72G).
T2 construct: expressed in transfected cells; host or cells: T cells, lentiviral transduction
T2 sequence (P62942 2-108 E32G/F37V/R72G/K106E): as above
Put plainly: Regulation of Her2.28z.FKBP CAR expression by shield-1 (protein L stain, FACS). The class given is cell-based. To be noted: 0.1 uM or 1 uM, 24 hours after addition of drug. As for the experimental part:
The FKBP12 DD domain was fused to the far c-terminus of the Her2.28z CAR. T cells were transduced with lentivirus to express the Her2.28z.FKBP. […] 24 hours after addition of drug, CAR T cells were stained with protein L and CAR expression was assessed via FACS. Both the percentage of CAR+ cells (quantified in the histograms) as well as CAR MFI are increased upon incubation with either 0.1 uM or 1 uM Shield-1 (S1).

The subject of assay [5] is HA-GD2.28z.FKBP CAR T cells. Nature of the assay: Western blot of CAR CD3-zeta phosphorylation (tonic signaling). In kind it is cell-based, human. To be noted: cultured in the absence of S1 (CAR Always OFF). The source says: This phenotype was also reversible, as indicated by the lack of CD3-zeta phosphorylation in DD-CAR T cells that were initially cultured with S1, but then had drug removed on day 7 of the culture (FIG. 16, CAR OFF D7).
(In general: A western blot detects proteins with antibodies after separation by electrophoresis.)

In assay [6] the test system is HA-GD2.28z.FKBP. Nature of the assay: Exhaustion marker co-expression on HA-GD2.28z.FKBP CAR T cells. The class given is cell-based, human. To be noted: upon removal of shield-1 from the culture medium. As for the experimental part:
When assessing IL-2 and IFNγ, cells were surface stained, then fixed and permeablized (eBioscience) prior to incubation with intracellular antibodies.
T cells were removed from culture, fixed in 2% PFA for 10 minutes at room temperature, pelleted and frozen at −80C. Upon thawing, each sample was barcoded with a 20-plex Pd harcoding kit (FIuidigm). Cell samples were then pooled and stained for surface marker expression with heavy-metal conjugated antibodies for 30 minutes at room temperature. Cells were then permeablized in methanol and subsequently stained with heavy metal-conjugated anti-human T-bet (4B10, Biolegend) and anti-human Blimp-1 (ROS195G, Biolegend) for 30 minutes at room temperature. Samples were run on a Helios mass cytometer (Fluidigm) and analyses were complete using Cytobank online software.
It was next determined whether the prevention or reversal of tonic signaling in HA-GD2.28z.FKBP-expressing CAR T cells altered their exhaustion phenotype.

The test system of assay [7] is GD2.28z.FKBP CAR T cells. Put plainly: Exhaustion phenotype of GD2.28z.FKBP CAR T cells after S1 removal (FACS). The class given is cell-based, human. The source says: Since tonic signaling is highly dependent upon GD2-CAR receptor levels, precise control of CAR expression levels also precisely regulates levels of tonic signaling. Drug regulated control of levels of CAR expression therefore also allowed modulation of the duration and intensity of GD2.28z tonic signaling. […] This is most well illustrated by measuring levels of PD-1/TIM-3/LAG-3 triple expressing cell which is highly specific for dysfunctional, exhausted T cells. […] Similar results were obtained on day 14 for cells in which S1 was removed from culture medium on day 7 or day 10 (not shown).

In assay [8] the test system is NALM6-GL-GD2. To be noted: mice that received TMP. On the procedure: At day 7 post-engraftment, 1-5×10^6 GD2.28z.DHFR or HA-GD2.28z.DHFR CAR+ T cells were infused intravenously.
Mice were then injected with either stabilizing drug or vehicle control every day thereafter.
To test this, antigen-bearing tumor cells were engrafted into NSG mice and subsequently infused 2-5E6 HA-GD2.28z.DHFR-expressing T cells. Mice were dosed with TMP everyday thereafter.

[9] abbreviates: S1 removed day 7 or 10, read day 14, vs continuous S1.

Regarding “nivolumab: anti-PD-1 checkpoint inhibitor”, in assay [1] (continuous S1 + nivolumab, day 10, sustained until day 14), the IL-2 secretion result is “only modest augmentation of IL-2 secretion”.
Take `CC[C@H](C(=O)N1CCCC[C@H]1C(=O)O[C@H](CCc1ccc(OC)c(OC)c1)c1cccc(OCCN2CCOCC2)c1)c1cc(OC)c(OC)c(OC)c1` [shield-1]: the “regulation of CAR surface expression” value in assay [2] is “rapidly and dose-dependently regulated”. In assay [3] (4 days without S1, CD4+ and CD8+ CAR T cells), the “expression of exhaustion markers” value is “far less expression of exhaustion markers”. Further, the “increase in IL-2 secretion” value in assay [3] (removal of S1 vs continuous S1 days 10-14) was found to be 2 fold. Also, in assay [4], the “CAR MFI” value is given as “increased” and the “percentage of CAR+ cells” value is “increased”. Moreover, in assay [1] (S1 removed day 7, vs continuous S1), the IL-2 secretion result was “superior IL-2 secretion”. Moreover, the “IL-2 secretion of exhausted T cells after rest” value in assay [1] (S1 removed day 10, rested 4 days, day 14 ELISA) is recorded as “reinvigorated”. Moreover, the “augmentation of IL-2 secretion” value in assay [1] (cultured without S1, S1 added back just prior to co-culture, vs continuous S1) was 5-10 fold. The CD3-zeta phosphorylation result in assay [5] was “absent”. The “co-expression of canonical exhaustion markers” value in assay [6] is reported as “rapidly downregulated”. In assay [7] (setting [9]), the “apoptosis (annexin V staining)” value is on record as “prevention of apoptosis” and the “memory markers (CD62L)” value was “maintenance of memory markers”. In assay [7] (S1 removed day 7 post-activation, read day 10), the “canonical exhaustion marker expression” value was “reverses canonical exhaustion marker expression to control levels”.
Consider `COc1cc(Cc2cnc(N)nc2N)cc(OC)c1OC` [trimethoprim], for which the “CD69 surface expression of CAR T cells” value in assay [8] is “higher CD69 surface expression”.
